# Measurements reported in patent US11369592B2 (priority 2020, dated 2022).
# Read-outs that look alike come from different tables or passages of the source.
# Legend:
# [1] = tested on: Influenza A H1N1/California/07/2009; assay: CPE inhibition assay (visual and neutral red); conditions: for EC50: Influenza A virus, H1N1; for EC50 (cell spans EC50, CC50, SI): MA-104 or MDCK, Visual or Neutral Red, concentration range 0.3-300
# SARS-CoV-2 [2] = assay: SARS-CoV-2 apical replication in MucilAir-Pool (genome copies ORF1b-nsp14, Taqman RT-PCR); type: cell-based
# [3] = tested on: Parainfluenza virus 3/14702; assay: CPE inhibition assay (visual and neutral red); conditions: for EC50 (cell spans EC50, CC50, SI): MA-104 or MDCK, Visual or Neutral Red, concentration range 0.3-300
# [4] = tested on: MucilAir™-Pool human airway epithelium; assay: Cilia beating frequency (CBF) on MucilAir-Pool, Phase 1; type: cell-based; conditions: Day 3, room temperature
# Experimental: Effect on cilia included cilia motion: Cilia Beating Frequency (CBF).
# (§1) Repeated basolateral exposure once a day of test compounds on MucilAir™-Pool. Transepithelial electrical resistance (TEER) was assessed each day. LDH release indicating cytotoxicity, was measured at Day 2 and 3 (24 hours accumulation). Cilia beating frequency (CBF) was measured once, at the end of the experiment, at Day 3. (FIG. 7)
# (§2) Number of concentrations: 3 doses • Celgosivir=100, 30 and […] on basolateral side in 0.2% DMSO and 2% fetal bovine serum
# Cilia beating frequency was monitored using a MAKO G030B camera connected to a ZEISS Primovert microscope with a 5× objective.
# CBF measurement is based on the capture of 256 frames at high frequency rate (125 frames per second) at room temperature via the specific package of software. The frequency is expressed as Hertz and was calculated using an Epithelix software.
# [5] = over the tolerated dose range; cited from earlier work
# [6] = tested on: MucilAir™-Pool human airway epithelium; assay: Lactate dehydrogenase (LDH) cytotoxicity assay on MucilAir-Pool, Phase 1; type: cell-based
# Experimental: (§3) The testing strategies includes basolateral exposure of test compounds on MucilAir™-Pool.
# (§4) Global markers of Toxicity included (1) Tissue integrity monitoring: Trans-epithelial electrical resistance (TEER) measurement and (2) Cytotoxicity: Lactate dehydrogenase (LDH) assay.
# as §1, with “7) […]” for “7)”
# Lactate dehydrogenase is a stable cytoplasmic enzyme that is rapidly released into the culture medium upon rupture of the plasma membrane. 100 μL basolateral medium collected at each time-point was incubated with the reaction mixture of the Cytotoxicity Detection Kit^PLUS, following manufacturer's instructions (Sigma, Roche, 11644793001). The amount of the released LDH was then quantified by measuring the absorbance of each sample at 490 nm with a microplate reader. To determine the percentage of cytotoxicity, the following equation was used (A=absorbance values): Cytotoxicity (%)=(A (exp value)−A (low control)/A (high control)−A (low control))*100
# The high control value was obtained by 10% Triton X-100 treatment 24 hours prior to the assay. Triton X-100 causes a massive LDH release and corresponds to 100% cytotoxicity.
# [7] = cited from earlier work
# [8] = tested on: MucilAir™-Pool human airway epithelium infected with SARS-CoV-2; assay: Tissue integrity (TEER) upon SARS-CoV-2 infection in MucilAir-Pool, Phase 2; type: cell-based
# [9] = tested on: Influenza H5 N1/Duck/MN/1525/81
# [10] = tested on: Influenza B/Brisbane/60/2008; assay: CPE inhibition assay (visual and neutral red); conditions: for EC50: Influenza B virus; for EC50 (cell spans EC50, CC50, SI): MA-104 or MDCK, Visual or Neutral Red, concentration range 0.3-300
# [11] = tested on: Influenza H5 N1/Duck/MN/1525/81; assay: organism not typed
# [12] = tested on: Influenza B/Florida/4/2006; assay: CPE inhibition assay (visual and neutral red); conditions: for EC50: Influenza B virus; for EC50 (cell spans EC50, CC50, SI): MA-104 or MDCK, Visual or Neutral Red, concentration range 0.3-300
# SARS-CoV-2 [13] = assay: SARS-CoV-2 apical infectious titre in MucilAir-Pool (TCID50); conditions: for reduction of SARS-CoV-2 titre at apical side: 48 hours
# Human rhinovirus 14/1059 = assay: CPE inhibition assay (visual and neutral red); conditions: for EC50 (cell spans EC50, CC50, SI): MA-104 or MDCK, Visual or Neutral Red, concentration range 0.3-300; for EC50: Rhinovirus B
# [14] = Pharmacokinetic simulations using CELADEN castanospermine parameters; design: species or system human; conditions: linear extrapolation
# Experimental: It is known that a steady state minimum castanospermine concentration of 400 nanograms/ml is associated with a 50 mg/kg BID dose in mice and that the antiviral effect of celgosivir in vivo seems to be correlated with the minimum steady state concentration of castanospermine. […] International Publication No. WO 2014/143907 discloses pharmacokinetic parameters for castanospermine for the CELADEN study. […] Extrapolating linearly, therefore, the minimum protective dose (achieving 400 nanograms/ml steady state minimum) is approximately 40 mg every 6h, 75 mg every 8 h and 225 mg every 12 h. Further, WO 2014/143907 discloses that the CELADEN study regimen produce a steady state maximum castanospermine concentration of 5100 nanograms/ml. […] The FDA has published generic scaling factors to adjust mg/kg dosing in animals to mg/kg dosing in humans. Generically for mice, that scaling factor is 12. Therefore, 50 mg/kg BID is equivalent to a dose of 4.2 mg/kg BID in humans, which for a 60 kg human is equivalent to 250 mg. The same dose administered three or four times daily is equivalent to 167 mg and 125 mg and 2.8 and 2.1 mg/kg respectively. In a 60 kg human, the maximum single dose is 6.7 mg/kg, and the maximum daily dose is 10 mg/kg.
# endogenous esterases = conditions: Kang (1996) Glycobiology; cited from earlier work
# [15] = tested on: MucilAir™-Pool human airway epithelium; assay: Tissue integrity (TEER) of uninfected MucilAir-Pool, Phase 1; type: cell-based; conditions: all three tested concentrations, up to three days; threshold 100 Ω·cm^2
# Experimental: as §3, §4, §1, §2
# TEER is a dynamic parameter that reflects the state of epithelia and is typically between 200 to 600 Ω·cm^2. An increase of the TEER value reflects a blockage of the ion channel activities. A notable decrease of the TEER values (but >100 Ω·cm^2) could be observed in certain cases, reflecting an activation of the ion channels. Disruption of cellular junction or holes in the epithelia result in TEER values below 100 Ω·cm^2. […]
# After addition of 200 μl of 0.9% saline solution to the apical compartment of MucilAir™ cultures, resistance was measured with an EVOMX volt-ohm-meter (World Precision Instruments UK, Stevenage) for each condition. […]
# [16] = mice; 50 mg/kg BID dose; cited from earlier work
compound,measurement,setting,value
"CCCC(=O)O[C@H]1CN2CC[C@H](O)[C@@H]2[C@@H](O)[C@@H]1O [Celgosivir, 6-O-butanoyl castanospermine]",EC50,[1],> 300 µM
same,"EC50 (cell spans EC50, CC50, SI)",[1],Not active
same,reduction of viruses (genome copies),"SARS-CoV-2 [2]; 30 mM (so in the source), 48 hours",1.2 log10
same,reduction of viruses (genome copies),"SARS-CoV-2 [2]; 30 mM (so in the source), later time point (72 hours)",0.9 log10
same,reduction of viruses (genome copies),"SARS-CoV-2 [2]; 100 mM (so in the source), 48 hours",1.4 log10
same,reduction of viruses (genome copies),"SARS-CoV-2 [2]; 100 mM (so in the source), later time point (72 hours)",1 log10
same,"inhibition of SARS-CoV-2 replication, dose relation","SARS-CoV-2 [2]; 3 doses, basolateral once a day for 3 days",dose dependent inhibition
same,SARS-CoV-2 replication,SARS-CoV-2 [2]; 3 microM,diminished extent
same,SARS-CoV-2 replication,SARS-CoV-2 [2]; 30 and 100 microM,decreased
same,EC50,[3],> 300 µM
same,"EC50 (cell spans EC50, CC50, SI)",[3],Not active
same,cilia motion (cilia beating frequency),[4],did not modify significantly
same,pharmacokinetics versus dose,[5],linear with dose
same,cytotoxicity (LDH release),"[6]; Day 2 and 3, threshold limit 5% cytotoxicity",No cytotoxicity
same,"evidence of cytotoxicity (TEER, cytotoxicity and CBF values versus controls)",[6]; concentrations at or below 100 microM,did not exhibit evidence of cytoxicity
same,adverse event profile,[7]; CELADEN study dose,"higher incidence of GI effects, but not increased severity"
same,maximum daily dose as a total dose,"[7]; human, in theory",600 mg
same,maximum dose as a single dose,"[7]; human, in theory",400 mg
same,effect against virus-induced cytopathology,[8]; 3 microM,diminished extent
same,SARS-CoV-2 induced decrease of TEER,"[8]; 30 and 100 μM, 48 and 72 hours post-inoculation",prevented
same,effect against virus-induced cytopathology,[8]; 30 and 100 microM,protective effective
same,"EC50 (cell spans EC50, CC50, SI)",[9],Not active
same,EC50,[10],> 300 µM
same,"EC50 (cell spans EC50, CC50, SI)",[10],Not active
same,EC50,[11],> 300 µM
same,EC50,[12],> 300 µM
same,"EC50 (cell spans EC50, CC50, SI)",[12],Not active
same,reduction of SARS-CoV-2 titre at apical side,SARS-CoV-2 [13]; 30 mM (so in the source),1 log10
same,reduction of SARS-CoV-2 titre at apical side,SARS-CoV-2 [13]; 100 mM (so in the source),1.9 log10
same,yield of viral progeny,SARS-CoV-2 [13]; 3 microM,diminished extent
same,yield of viral progeny,SARS-CoV-2 [13]; 30 and 100 microM,decreased
same,reducing effect on SARS-CoV-2 titre,"SARS-CoV-2 [13]; 72 hours, concentration not given",1.1 log
same,"EC50 (cell spans EC50, CC50, SI)",Human rhinovirus 14/1059,Not active
same,EC50,Human rhinovirus 14/1059,> 300 µM
same,minimum protective dose (achieving 400 nanograms/ml steady state minimum),[14]; every 6h,approximately 40 mg
same,minimum protective dose (achieving 400 nanograms/ml steady state minimum),[14]; every 8 h,~75 mg
same,minimum protective dose (achieving 400 nanograms/ml steady state minimum),[14]; every 12 h,~225 mg
same,conversion to castanospermine,endogenous esterases,rapidly converted by endogenous esterases to castanospermine
same,crossing of cell membranes,endogenous esterases,readily crosses cell membranes
same,Epithelial barrier function (TEER),[15],> 100 Ω·cm^2
"NC(=O)c1ncn([C@@H]2O[C@H](CO)[C@@H](O)[C@H]2O)n1 [Ribavirin, reference compound]",EC50,[1],< 10 µM
same,EC50,[3],< 10 µM
same,EC50,[10],< 10 µM
same,EC50,[11],< 10 µM
same,EC50,[12],< 10 µM
same,EC50,Human rhinovirus 14/1059,< 10 µM
"O[C@H]1[C@H](O)[C@@H](O)CN2CC[C@H](O)[C@H]12 [castanospermine, (1S,6S,7R,8aR)-Tetrahydroxyoctahydroindolizine]",EC50,[1],> 300 µM
same,"EC50 (cell spans EC50, CC50, SI)",[1],Not active
same,EC50,[3],> 300 µM
same,"EC50 (cell spans EC50, CC50, SI)",[3],Not active
same,steady state maximum castanospermine concentration,[7]; CELADEN study regimen,5100 nanograms/ml
same,"EC50 (cell spans EC50, CC50, SI)","[9]; MA-104 or MDCK, Visual or Neutral Red, concentration range 0.3-300",Not active
same,EC50,[10],> 300 µM
same,"EC50 (cell spans EC50, CC50, SI)",[10],Not active
same,EC50,[11],> 300 µM
same,EC50,[12],> 300 µM
same,"EC50 (cell spans EC50, CC50, SI)",[12],Not active
same,"EC50 (cell spans EC50, CC50, SI)",Human rhinovirus 14/1059,Not active
same,EC50,Human rhinovirus 14/1059,> 300 µM
same,steady state minimum castanospermine concentration,[16],400 nanograms/ml
Triton X-100 [reference compound],induced toxicity (LDH release),"[6]; 10% Triton X-100 solution, apical, 24 h, high control",100%
